The test system of one series is lung cancer. The following applies: lung cancer patients; cited from earlier work.
Series [1] deals with Yoshida AH-130 ascites hepatoma (AH) cells. The series can be described thus: Ascites volume in rat AH (Yoshida AH-130 ascites hepatoma) model. Format: in vivo, female Wistar rats. The following applies: for Ascites (mL) Mean: AH-inoculated rats. Here is the method:
Following the method of Busquets et al., female Wistar rats were inoculated (Day 0) intraperitoneally (ip) with 2×10^7 cells/animal of Yoshida AH-130 ascites hepatoma (AH) cells. Control animals were inoculated with an equivalent amount of sterile saline solution. […] The roxithromycin dosing solution was 2 mg/mL in 20 mM citrate, pH of 5.5, and 4.5% mannitol in water. The animals were sacrificed on Day 5. Upon sacrifice ascites fluid was withdrawn by syringe and the volume determined. Three different experiments were performed. In each experiment one control group received an ascites hepatoma (AH) inoculation with vehicle treatment, and a second control group received saline inoculation with vehicle treatment. In Experiment 1, the single treatment group received 5 mg/kg roxithromycin (ip). Ascites volumes were determined. In Experiment 2, the single treatment group received 50 mg/kg roxithromycin (ip). Ascites volumes, serum albumin concentrations, and CRP levels in dissected gastrocnemius muscle were determined. AH cell counts and cell viability (%) were determined in recovered ascites fluid. In Experiment 3, one treatment group received 40 mg/kg (ip) roxithromycin, and a second treatment group received 40 mg/kg (po). Ascites volumes, plasma CRP and VEGF concentrations, and ascites CRP and VEGF concentrations were determined.

Series [2] shares this test system. Kind of series: AH cell count and viability in recovered ascites fluid, rat AH model. Format: in vivo, female Wistar rats. The procedure:
Following the method of Busquets et al., female Wistar rats were inoculated (Day 0) intraperitoneally (ip) with 2×10^7 cells/animal of Yoshida AH-130 ascites hepatoma (AH) cells. Control animals were inoculated with an equivalent amount of sterile saline solution. […] The roxithromycin dosing solution was 2 mg/mL in 20 mM citrate, pH of 5.5, and 4.5% mannitol in water.
For the cell count measurements in ascites, the cells were counted directly from the ascites collected at necropsy from N 4 animals in […]. A […] aliquot was taken from each sample and diluted 1:500 with trypan blue. The sample was then placed onto a hemacytometer and both sides counted to determine the total number of viable and non-viable AH cells.
In Experiment 2, the single treatment group received 50 mg/kg roxithromycin (ip). Ascites volumes, serum albumin concentrations, and CRP levels in dissected gastrocnemius muscle were determined. AH cell counts and cell viability (%) were determined in recovered ascites fluid.

In a further series the test system is serum albumin. Kind of series: Serum albumin concentration, rat AH model. The class given is in vivo, female Wistar rats. The conditions noted are these: Experiment 2; 50 mg/kg ip. The procedure:
Following the method of Busquets et al., female Wistar rats were inoculated (Day 0) intraperitoneally (ip) with 2×10^7 cells/animal of Yoshida AH-130 ascites hepatoma (AH) cells. Control animals were inoculated with an equivalent amount of sterile saline solution. […] The roxithromycin dosing solution was 2 mg/mL in 20 mM citrate, pH of 5.5, and 4.5% mannitol in water. […] In Experiment 2, the single treatment group received 50 mg/kg roxithromycin (ip). Ascites volumes, serum albumin concentrations, and CRP levels in dissected gastrocnemius muscle were determined. AH cell counts and cell viability (%) were determined in recovered ascites fluid.

In series [3] the test system is C-reactive protein (CRP). Kind of series: C-reactive protein in gastrocnemius muscle lysate (Quantikine Rat CRP Immunoassay Kit), rat AH model. The conditions noted are these: Experiment 2, 50 mg/kg ip. Format: in vivo, female Wistar rats. Here is the method:
Following the method of Busquets et al., female Wistar rats were inoculated (Day 0) intraperitoneally (ip) with 2×10^7 cells/animal of Yoshida AH-130 ascites hepatoma (AH) cells. Control animals were inoculated with an equivalent amount of sterile saline solution. […] The roxithromycin dosing solution was 2 mg/mL in 20 mM citrate, pH of 5.5, and 4.5% mannitol in water. Serum samples were collected prior to sacrifice on D5 and assayed for serum albumin concentration. After determination of gastrocnemius muscle wet weight, some gastrocnemius samples were lysed and determinations made of C-reactive protein (CRP, using Quantikine Rat CRP Immunoassay Kit) and total protein. A commercial immunoassay kit (Quantikine Rat VEGF Immunoassay, R & D Systems PN RRV00) was used to determine Vascular Endothelial Growth Factor (VEGF) concentration in plasma and ascites. Similarly, CRP concentration in plasma and ascites was determined using a commercial kit (Rat High-Sensitive CRP ELISA Method, Kamiya Biochemical PN KT099). In Experiment 2, the single treatment group received 50 mg/kg roxithromycin (ip). Ascites volumes, serum albumin concentrations, and CRP levels in dissected gastrocnemius muscle were determined. AH cell counts and cell viability (%) were determined in recovered ascites fluid.

Series [4] deals with C-reactive protein (CRP). The series can be described thus: CRP concentration in plasma and ascites (Rat High-Sensitive CRP ELISA), rat AH model. Format: in vivo, female Wistar rats. The conditions noted are these: Experiment 3; for Ascites [CRP] Mean: ascites fluid; for Ascites CRP ng/rat Mean: concentration times ascites volume; for Plasma [CRP] Mean: AH-inoculated. The procedure:
(§1) Following the method of Busquets et al., female Wistar rats were inoculated (Day 0) intraperitoneally (ip) with 2×10^7 cells/animal of Yoshida AH-130 ascites hepatoma (AH) cells. Control animals were inoculated with an equivalent amount of sterile saline solution. […] The roxithromycin dosing solution was 2 mg/mL in 20 mM citrate, pH of 5.5, and 4.5% mannitol in water. Serum samples were collected prior to sacrifice on D5 and assayed for serum albumin concentration. After determination of gastrocnemius muscle wet weight, some gastrocnemius samples were lysed and determinations made of C-reactive protein (CRP, using Quantikine Rat CRP Immunoassay Kit) and total protein. A commercial immunoassay kit (Quantikine Rat VEGF Immunoassay, R & D Systems PN RRV00) was used to determine Vascular Endothelial Growth Factor (VEGF) concentration in plasma and ascites. Similarly, CRP concentration in plasma and ascites was determined using a commercial kit (Rat High-Sensitive CRP ELISA Method, Kamiya Biochemical PN KT099). In Experiment 3, one treatment group received 40 mg/kg (ip) roxithromycin, and a second treatment group received 40 mg/kg (po). Ascites volumes, plasma CRP and VEGF concentrations, and ascites CRP and VEGF concentrations were determined.
For orientation: An ELISA detects its analyte on a solid surface through an enzyme-linked reagent.

The test system of series [5] is Vascular Endothelial Growth Factor (VEGF). The series can be described thus: VEGF concentration in plasma and ascites (Quantikine Rat VEGF Immunoassay), rat AH model. The class given is in vivo, female Wistar rats. The conditions noted are these: Experiment 3; for Ascites [VEGF] Mean: ascites fluid; for Ascites VEGF pg/rat Mean: concentration times ascites volume. The procedure:
as §1

For series [6] the following is noted: macrolide given to rats prior to carrageenan stimulation; cited from earlier work.
The mark [7] stands for this setting: Experiment 2, ascites, AH-inoculated, 50 mg/kg ip, N = 4.

Marks after values point to notes of the source that are not given here.

For the compound `CC[C@H]1OC(=O)[C@H](C)[C@@H](O[C@H]2C[C@@](C)(OC)[C@@H](O)[C@H](C)O2)[C@H](C)[C@@H](O[C@@H]2O[C@H](C)C[C@H](N(C)C)[C@H]2O)[C@](C)(OC)C[C@@H](C)C(=O)[C@H](C)[C@@H](O)[C@]1(C)O` [clarithromycin], in the series on lung cancer, the IL6 levels result was “reduced” and the Median survival time result was “significantly increased”.

As to `CC[C@H]1OC(=O)[C@H](C)[C@@H](O[C@H]2C[C@@](C)(OC)[C@@H](O)[C@H](C)O2)[C@H](C)[C@@H](O[C@@H]2O[C@H](C)C[C@H](N(C)C)[C@H]2O)[C@](C)(O)C[C@@H](C)/C(=N\OCOCCOC)[C@H](C)[C@@H](O)[C@]1(C)O` [roxithromycin], the “Accumulated ascites fluid versus vehicle control” value in series [1] (Experiment 1, 5 mg/kg (ip), difference not statistically significant) is listed as “lowered the accumulated ascites fluid”. The “Ascites (mL) Mean” value in series [1] (Experiment 1, 5 mg/kg ip qd from Day 1, sacrifice Day 5) was 3.48** mL; in series [1] (Experiment 2, 50 mg/kg ip qd, Day 5), 2.92 mL; in series [1] (Experiment 3, 40 mg/kg i.p. qd, Day 5), 3.0 mL; in series [1] (Experiment 3, 40 mg/kg oral, bid, Day 5) it was 3.7 mL. The “Accumulated ascites volume versus vehicle control” value is on record as “very significantly reduced” in series [1] (Experiment 2, 50 mg/kg ip) and “very significantly reduced” in series [1] (Experiment 3, 40 mg/kg given either po or ip). The “AH cell densities or cell counts versus vehicle control” value in series [2] (Experiment 2, 50 mg/kg ip) is given as “did not reduce”. For the same compound, the “Viable Cells % Mean” value in series [2] (Experiment 2, ascites AH cells, trypan blue, 50 mg/kg ip, N = 4) is on record as 99%. The “Cells/mL × 10^6 Mean” value in series [2] (setting [7]) came out at 338 Cells/mL × 10^6. Moreover, the “Total Cells # × 10^6 Mean” value in series [2] (setting [7]) was 2,077 × 10^6. Also, the “Cytostatic or cytotoxic activity toward ascites hepatoma cells” value in series [2] (rat AH model, conclusion from cell counts and viability) is listed as “does not appear to be cytostatic or cytotoxic”. Further, the “Serum albumin levels versus AH-inoculated vehicle animals” value with serum albumin is reported as “did not significantly change”. In the series on C-reactive protein (CRP) [3], the “Muscle CRP levels versus AH-inoculated vehicle animals” value was “did significantly reduce”. The “Muscle CRP Mean” value with C-reactive protein (CRP) [3] (gastrocnemius muscle, AH-inoculated rats) turned out to be 28.5 ng/mg total protein. Also, the “Total CRP per rat in ascites versus vehicle control” value in the series with C-reactive protein (CRP) [4] (40 mg/kg given either orally or intraperitoneally) is listed as “statistically significantly reduced”. The “Plasma CRP concentration versus vehicle-treated animals” value in the series on C-reactive protein (CRP) [4] (40 mg/kg ip) is listed as “lowered plasma CRP concentration compared with the vehicle-treated animals, but the differences were not statistically significant”; with C-reactive protein (CRP) [4] (40 mg/kg oral) it was “very significantly lowered”. In addition, the “Ascites [CRP] Mean” value with C-reactive protein (CRP) [4] (40 mg/kg i.p. qd (Group 9)) is listed as 230 ng/mL; with C-reactive protein (CRP) [4] (40 mg/kg oral, bid (Group 10)), 287 ng/mL. Also, the “Ascites CRP ng/rat Mean” value is given as 530 ng/rat in the series on C-reactive protein (CRP) [4] (40 mg/kg i.p. qd (Group 9)) and 730 ng/rat in the series with C-reactive protein (CRP) [4] (40 mg/kg oral, bid (Group 10)). Further, the “Plasma [CRP] Mean” value with C-reactive protein (CRP) [4] (40 mg/kg i.p. qd) was 709 µg/mL; in the series with C-reactive protein (CRP) [4] (40 mg/kg oral, bid) it was 593 µg/mL. The “Ascites [VEGF] Mean” value in series [5] (40 mg/kg i.p. qd (Group 9)) was 4,590 pg/mL; in series [5] (40 mg/kg oral, bid (Group 10)) it was 4,040 pg/mL. The “Ascites VEGF pg/rat Mean” value in series [5] (40 mg/kg i.p. qd (Group 9)) is 10,200 pg/rat; in series [5] (40 mg/kg oral, bid (Group 10)) it was 9,900 pg/rat. Also, the “Plasma VEGF concentration” value in series [5] (plasma, 40 mg/kg ip qd or oral bid) is listed as “below the immunoassay method quantitation limit”. Further, the “Influence on VEGF levels” value in series [5] (rat AH model) is on record as “does not influence VEGF levels”. For the same compound, the “Exudate accumulation in rat paws” value in series [6] is “limit exudate accumulation”.

The record behind these values is US20090221518A1, “Compositions and Methods for Treatment of Exudative Serous Effusion” (Anaborex, Inc., priority 2007, published 2009).
